The text below walks through data of patent US11236072B2, “N-[(pyrimidinylamino)propanyl]-,n-[pyridylamino)propanyl]- and n-[(pyrazinylaminol)propanyl]arylcarboxamides” (Boehringer Ingelheim International GmbH, priority 2017, dated 2022).

Like-named read-outs stand apart in the source and are kept apart here. A value given as a limit tells only on which side of the number the result lay.

As usually defined, the IC50 is the concentration that inhibits the measured activity by half.

The target in data set [1] is T1, OX2R (Homo sapiens, UniProt O43614).
T1 sequence (O43614 1-444): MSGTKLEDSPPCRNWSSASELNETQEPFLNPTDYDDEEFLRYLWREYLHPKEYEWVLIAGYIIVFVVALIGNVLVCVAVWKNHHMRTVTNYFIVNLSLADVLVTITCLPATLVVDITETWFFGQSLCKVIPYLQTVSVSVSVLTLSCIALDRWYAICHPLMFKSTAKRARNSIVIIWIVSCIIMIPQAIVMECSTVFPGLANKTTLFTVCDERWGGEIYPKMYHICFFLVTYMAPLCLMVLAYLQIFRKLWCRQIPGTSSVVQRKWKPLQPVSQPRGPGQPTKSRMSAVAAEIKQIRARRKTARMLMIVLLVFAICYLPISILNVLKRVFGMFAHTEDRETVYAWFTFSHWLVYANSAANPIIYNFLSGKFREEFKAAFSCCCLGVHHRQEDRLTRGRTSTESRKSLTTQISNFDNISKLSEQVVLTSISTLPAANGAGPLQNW
To be noted: cited from earlier work.

The target of data set [2] is T1, OX2R. The experiment in a line: In vitro OX2R potency as reported in WO2016/034882.
For data set [3], the target named is T2, human Orexin 1 receptor (Homo sapiens, UniProt O43613).
T2 sequence (O43613 1-425): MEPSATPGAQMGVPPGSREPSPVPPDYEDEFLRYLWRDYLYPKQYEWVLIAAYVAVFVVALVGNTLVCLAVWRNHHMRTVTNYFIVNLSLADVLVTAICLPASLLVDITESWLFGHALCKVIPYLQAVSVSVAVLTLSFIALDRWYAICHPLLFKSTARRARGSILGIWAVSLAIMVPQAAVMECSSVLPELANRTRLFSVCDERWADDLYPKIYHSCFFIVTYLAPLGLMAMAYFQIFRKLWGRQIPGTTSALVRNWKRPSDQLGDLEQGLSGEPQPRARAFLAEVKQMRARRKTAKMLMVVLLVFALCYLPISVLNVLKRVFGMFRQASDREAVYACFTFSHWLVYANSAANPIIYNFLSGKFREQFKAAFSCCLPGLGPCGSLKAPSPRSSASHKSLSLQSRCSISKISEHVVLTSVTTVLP
The experiment in a line: Assay A: in vitro testing of OX1R potency, OX1R IP1. Format: cell-based. To be noted: for Kb: 50 nM Orexin A concentration. The text has this:
Chem. Genomics 2009, 3, 22-32.
A. In Vitro Testing of OX1R Potency: OX1R IP1

Data set [4] relates to human MDR1 P-gp. The experiment in a line: Assay D: efflux in MDCK cells transfected with the human MDR1 gene. Format: in vitro ADME, canine. The following applies: dog; MDCK-MDR1 monolayers, pH 7.4, 37° C.; read-out: MDCK efflux ratio (BA/AB). The protocol:
The MDCK assay provides information on the potential of a compound to pass the blood brain barrier. Permeability measurements across polarized, confluent MDCK-MDR1 cell monolayers grown on permeable filter supports are used as an in vitro absorption model: apparent permeability coefficients (PE) of the compounds across the MDCK-MDR1 cell monolayers are measured (pH 7.4, 37° C.) in apical-to-basal (AB) and basal-to-apical (BA) transport direction. […] Identical or similar permeabilities in both transport directions indicate passive permeation, vectorial permeability points to additional active transport mechanisms. Higher PEBA than PEAB (PEBA/PEAB>5) indicates the involvement of active efflux mediated by MDR1 P-gp, which might compromises the goal to achieve sufficient brain exposure. Therefore this assay provides valuable support for selection of compounds applicable for further in vivo testing. High permeability not limited by efflux at the blood brain barrier is a favourable characteristic for compounds that are to be used for drugs acting primarily in the CNS
D. Assessment of Efflux in Madin-Darby Canine Kidney (MDCK) Cells Transfected with the Human MDR1 Gene
Apparent permeability coefficients (PE) of the compounds across the MDCK-MDR1 cell monolayers are measured (pH 7.4, 37° C.) in apical-to-basal (AB) and basal-to-apical (BA) transport direction. […] The compounds are assigned to permeability/absorption classes by comparison of the AB permeabilities with the AB permeabilities of reference compounds with known in vitro permeability and oral absorption in the human. Identical or similar permeabilities in both transport directions indicate passive permeation, vectorial permeability points to additional active transport mechanisms. Higher PEBA than PEAB indicates the involvement of active efflux mediated by MDR1 P-gp. Active transport is concentration-dependently saturable.
MDCK-MDR1 cells (1-2×10e5 cells/1 cm2 area) are seeded on filter inserts (Costar transwell polycarbonate or PET filters, 0.4 μm pore size) and cultured (DMEM) for 7 days. Subsequently, the MDR1 expression is boosted by culturing the cells with 5 mM sodium butyrate in full medium for 2 days. Compounds are dissolved in appropriate solvent (like DMSO, 1-20 mM stock solutions). Stock solutions are diluted with HTP-4 buffer (128.13 mM NaCl, 5.36 mM KCl, 1 mM MgSO4, 1.8 mM CaCl2, 4.17 mM NaHCO3, 1.19 mM Na2HPO4×7H2O, 0.41 mM NaH2PO4×H2O, 15 mM HEPES, 20 mM glucose, 0.25% BSA, pH 7.4) to prepare the transport solutions (0.1-300 μM compound, final DMSO<=0.5%). The transport solution (TL) is applied to the apical or basolateral donor side for measuring A-B or B-A permeability (3 filter replicates), respectively. The receiver side contains the same buffer as the donor side. Samples are collected at the start and end of experiment from the donor and at various time intervals for up to 2 hours also from the receiver side for concentration measurement by HPLC-MS/MS or scintillation counting. Sampled receiver volumes are replaced with fresh receiver solution.

Data set [5] is described as follows: Assay C: metabolic stability in human liver microsomes (Human MST). Format: in vitro ADME. To be noted: pH 7.6; pooled human liver microsomes, 1 μM compound, 37° C.; read-out: Human MST t1/2. From the text: Stability in human liver microsomes refers to the susceptibility of compounds to biotransformation in the context of selecting and/or designing drugs with favorable pharmacokinetic properties. The primary site of metabolism for many drugs is the liver. Human liver microsomes contain the cytochrome P450s (CYPs), and thus represent a model system for studying drug metabolization in vitro. Enhanced stability in human liver microsomes is associated with several advantages, including increased bioavailability and longer half-life, which can enable lower and less frequent dosing of patients. Thus, enhanced stability in human liver microsomes is a favorable characteristic for compounds that are to be used for drugs.
C. Assessment of Metabolic Stability in Human Liver Microsomes (Human MST)
The metabolic stability of the compounds according to the invention may be investigated as follows:
The metabolic degradation of the test compound is assayed at 37° C. with pooled human liver microsomes. The final incubation volume of 100 μL per time point contains TRIS buffer pH 7.6 at room temperature (0.1 M), MgCl2 (5 mM), microsomal protein (1 mg/mL) and the test compound at a final concentration of 1 μM. Following a short pre-incubation period at 37° C., the reactions are initiated by addition of beta-nicotinamide adenine dinucleotide phosphate, reduced form (NADPH, 1 mM), and terminated by transferring an aliquot into solvent after different time points. After centrifugation (10000 g, 5 min), an aliquot of the supernatant is assayed by LC-MS/MS for the amount of parent compound. The half-life (t1/2) is determined by the slope of the semi-logarithmic plot of the concentration-time profile.

Setting [6] is: Table 3 of WO2016/034882, corresponds to pIC50.
[7] abbreviates: compared to Example 84 in WO2016/034882.

Turning to `CC[C@@H](CNc1ncc(C(F)(F)F)cn1)N(CC)C(=O)c1nc(C)ccc1-n1nccn1` [Ex 73 in WO2016/ 034882], in data set [1] (setting [6]), the concentration for half-maximal inhibition (IC50) is > 1000 nM. In addition, the “OX2R pIC50” value in data set [1] (Table 3 of WO2016/034882) is listed as < 6.0.

`CC[C@@H](CNc1cnc(C(F)(F)F)cn1)N(C)C(=O)c1cc(Cl)ccc1-n1nccn1` [Ex 40 in WO2016/ 034882]: the “OX2R IC50/OX1R IC50” value in data set [2] (Table 1 of WO2016/034882) is “Table 1: 156”.

In data set [3], `C[C@@H](CNc1ncc(C(F)(F)F)cn1)N(CCF)C(=O)c1cccc(F)c1-n1nccn1` [Example 2] returned a Kb of 0.67 nM. Besides, the efflux ratio in data set [4] was < 3. In addition, the half-life at 1 μM in data set [5] is > 2.17 h.

The molecule `CCN(C(=O)c1cc(F)cnc1-n1nccn1)[C@@H](C)CNc1ccc(C(F)(F)F)cn1` [Example 12] showed a Kb in data set [3] of 0.156 nM. Besides, the “higher potency (OX1R)” value in data set [3] (compared to Example 73 in WO2016/034882) is reported as “approximately 2 fold”. The efflux ratio in data set [4] was 3 to 5.5. In data set [5], the half-life at 1 μM turned out to be 0.733 h.

`C[C@@H](CNc1ncc(C(F)(F)F)cn1)N(CC1CC1)C(=O)c1cccc(F)c1-n1nccn1` [Example 1]: the Kb in data set [3] came out at 0.214 nM. The efflux ratio in data set [4] is < 3. In addition, the half-life at 1 μM in data set [5] worked out at 1.22 h.

Take `CC[C@@H](CNc1ncc(C(F)(F)F)cn1)N(C)C(=O)c1c(F)cccc1-n1nccn1` [Ex 91 in WO2016/ 034882]: the half-life at 1 μM in data set [5] was > 2.17 h. In data set [1] (setting [6]), the IC50 was ≥ 7590 nM. Also, in data set [1] (Table 3 of WO2016/034882), the “OX2R pIC50” value is given as < 5.1.

`CCN(C(=O)c1cnc(C)nc1-c1ccccc1)[C@@H](C)CNc1ncc(Br)cn1` [Example 13] registered a Kb in data set [3] of 0.089 nM. The efflux ratio in data set [4] is < 3. The half-life at 1 μM in data set [5] was found to be 1.27 h.

With `CCN(C(=O)c1cccc(F)c1-n1nccn1)[C@@H](C)CNc1ncc(Br)cn1` [Example 4], the Kb in data set [3] amounted to 0.116 nM. Moreover, the efflux ratio in data set [4] is < 3. Also, the half-life at 1 μM in data set [5] was > 2.17 h.

Turning to `C[C@@H](CNc1ncc(C(F)(F)F)cn1)N(C)C(=O)c1cccc(F)c1-c1ncccn1` [Example 9], in data set [3], the Kb was 0.223 nM. In addition, the “higher potency (OX1R)” value in data set [3] (setting [7]) was ~10 fold. The efflux ratio in data set [4] is < 3. Also, in data set [5], the half-life at 1 μM is > 2.17 h.

For `CCN(C(=O)c1ccc(F)c(F)c1-c1ncccn1)[C@@H](C)CNc1ncc(C(F)(F)F)cn1` [Example 8], in data set [3], the Kb was found to be 0.014 nM. In data set [3] (setting [7]), the “higher potency (OX1R)” value is on record as “over 150 fold”. For the same molecule, the efflux ratio in data set [4] was < 3. The half-life at 1 μM in data set [5] was > 2.17 h.

For the molecule `CCN(C(=O)c1cccc(F)c1-n1nccn1)[C@@H](C)CNc1ncc(C(F)(F)F)cc1C#N` [Example 7], the Kb in data set [3] turned out to be 0.021 nM. Besides, the efflux ratio in data set [4] was < 3. Also, in data set [5], the half-life at 1 μM is 1.48 h.

The molecule `CCN(C(=O)c1cc(Cl)ccc1-n1nccn1)[C@@H](C)CNc1cnc(C(F)(F)F)cn1` [Example 10] showed a Kb in data set [3] of 0.011 nM. Besides, the “better potency (OX1R)” value in data set [3] (compared to Example 40 in WO2016/034882) was found to be 16 fold. Further, in data set [4], the efflux ratio is < 3. Besides, the half-life at 1 μM in data set [5] amounted to 2.17 h.

For the molecule `CC[C@@H](CNc1ncc(C(F)(F)F)cn1)N(C)C(=O)c1nc(C)ccc1-n1nccn1` [Ex 46 in WO2016/ 034882], the half-maximal inhibitory concentration (IC50) in data set [1] (Table 2 of WO2016/034882, corresponds to pIC50) was > 10000 nM; in data set [1] (setting [6]) it was ≥ 10000 nM. In addition, the “OX2R pIC50” value in data set [1] (Table 2 of WO2016/034882) and in data set [1] (Table 3 of WO2016/034882) was < 5.0 each time. For the same molecule, the “OX2R IC50/OX1R IC50” value is given as 390 in data set [2] (Table 1 of WO2016/034882), > 312 in data set [2] (Table 2 of WO2016/034882) and 3200 in data set [2] (Table 3 of WO2016/034882).

`CCN(C(=O)c1cc(Cl)ccc1-n1nccn1)[C@@H](C)CNc1ncc(C(F)(F)F)cn1` [Example 3] came in with a Kb in data set [3] of 0.032 nM. Moreover, the efflux ratio in data set [4] is < 3. Also, the half-life at 1 μM in data set [5] is 2.17 h.
